Patent US20130078224A1, “INDUCTION/MONITORING OF ARTERIOGENESIS USING SDF1 AND PDGFB OR INHIBITION OF PHD2” (LIFE SCIENCES RESEARCH PARTNERS VZW, priority 2010, published 2013)

What was measured:
NF-κB = experiment: NF-κB-responsive firefly luciferase reporter assay in bone marrow-derived macrophages; type: cell-based, mice
Protocol: (§1) Transduction and Transfection of Bone Marrow-Derived Macrophages and Lung Endothelial Cells: To express an inducible NF-κB responsive firefly luciferase reporter, commercially available lentiviral vector particles (LV) were used (Cignal Lenti NF-κB Reporter; SABiosciences). 2.5×10^5 bone marrow-derived macrophages and 10^5 primary lung endothelial cells (isolated as previously described (Mazzone et al., 2009, see above)) were seeded in a 24-well plate in DMEM 10% FBS or M199 20% FBS for eight hours. Cells were transduced with 10^8 TU/ml. Eight hours after transduction, the medium wash was replaced. After 48 hours, cells were stimulated with TNFα (20 ng/mL) for eight hours and the same amount of protein extract was read in a luminometer. For PHD3 silencing, siRNA oligonucleotides were designed using the Invitrogen online siRNA design tool (world wide web at maidesigner.invitrogen.com). The following sequences (sense strands) and target positions were used: PHD3 siRNA: 5′-[…]-3′ (SEQ ID NO:1); scramble siRNA:5′-[…]-3′ (SEQ ID NO:2). In brief, one day after the transduction of macrophages with LV, cells were transfected using Lipofectamine 2000 (Invitrogen) according to the manufacturer's instructions. Preparation of the oligonucleotide-Lipofectamine 2000 complexes was done as followed: 25 pmol siRNA oligonucleotide (stock: 20 μM) was diluted in 50 μl Opti-MEM I reduced serum medium. Lipofectamine 2000 (1.5 μl) was diluted in 50 μl Opti-MEM I reduced serum medium and incubated for five minutes at room temperature. siRNA oligonucleotides were gently mixed with Lipofectamine 2000 and allowed to incubate at room temperature for twenty minutes to form complexes. Just before transfection, the cell culture medium was removed and cells were rinsed twice with serum-free Opti-MEM I medium. The Lipofectamine 2000-siRNA oligonucleotide complexes were added to each well in 400 μl of serum-free Opti-MEM medium for five hours. Afterwards, cells were incubated in complete medium for 48 hours at 37° C. in a CO2 incubator and assayed for gene knockdown (qRT-PCR) and luciferase activity. To assess if the increased NFkB activity observed in PHD2^+/− macrophages was dependent on the hydroxylase activity of PHD2, 48 hours before transduction, 4×10^6 bone marrow-derived macrophages were resuspended in 240 μl of Opti-MEM and were electroporated (250 V, 950 uF, ∝ Ω) with 7 μg of plasmids expressing a wild-type PHD2 (PHD2^wt) or a PHD2 containing a mutation at the catalytic site (PHD2^H313A).

PHD3 = PHD3 gene knockdown (qRT-PCR) in macrophages; type: cell-based, mice
Protocol: as §1, with “To assess if the increased NFkB activity observed in PHD2^+/− macrophages was dependent on the hydroxylase activity of PHD2, 48 hours before transduction, 4×10^6 bone marrow-derived macrophages were resuspended in 240 μl of Opti-MEM and were electroporated (250 V, 950 uF, ∝ Ω) with 7 μg of plasmids expressing a wild-type PHD2 (PHD2^wt) or a PHD2 containing a mutation at the catalytic site (PHD2^H313A).” left out

[1] = tested on: RAOSMC (Rat Aortic Smooth Muscle Cells); experiment: SMC growth assay (WST-1) in coculture with PHD2+/- macrophages; type: cell-based; conditions: AMD3100, imatinib, alone or combined
Protocol: (§2) Cell Migration and Viability Assays: Migration and proliferation of SMCs and ECs were assessed by using 8 μm-pore Transwell peimeable plate for migration assays and 0.4 μm-pore Transwell permeable plate for proliferation assays (Corning Life Science). To determine cell migration toward the factors secreted by pMØ, pMØ were cultured in the lower chamber for twelve hours in RPMI 1% FBS or in M-199 1% FBS (migration assay), or 48 hours in DMEM-F12 1% FBS or in M-199 1% FBS (proliferation assay). For migration assays, hCASMC (Human coronary artery smooth muscle cells; from Lonza) and HUVEC (Human umbilical vein endothelial cells; from Lonza) were starved for twelve hours in their own medium at 1% FBS and, therefore, seeded in the upper chamber (5×10^3 cells in 200 μl of medium 1% FBS), with or without AMD3100 (1 μg/ml, Sigma-Aldrich, Dorset, U.K) and imatinib (2.5 μg/ml, Novartis). SMCs and HUVECs were incubated for two days or 24 hours, respectively, and migrated cells were fixed with 4% PFA, stained with 0.25% crystal violet/50% methanol and counted under the microscope. VEGF (100 ng/mL, R&D), PDGFB (100 ng/mL, R&D) or SDF 1 (100 ng/mL, R&D) were used as positive controls. […] The cell proliferative ability was then analyzed using WST-1 Cell Proliferation Assay (Roche Applied Biosciences) according to the manufacturer instructions after 24 hours of coculture with the pMØ. […]

[2] = tested on: secondary and tertiary collateral arterioles; experiment: Collateral vessel formation in bone marrow transplanted mice treated with AMD3100/imatinib (gelatin bismuth angiography); type: in vivo
Protocol: Mouse Model of Hindlimb Ischemia: To induce hind limb ischemia, unilateral or bilateral ligations of the femoral artery and vein (proximal to the popliteal artery) and the cutaneous vessels branching from the caudal femoral artery side branch were performed without damaging the nervus femoralis (Luttun et al., Nat. Med. 8:831-840, 2002). By using this procedure, collateral flow to adductor muscles is preserved via arterioles branching from the femoral artery, therefore, 50% up to 60% of perfusion is preserved by this method. Two superficial preexisting collateral arterioles connecting the femoral and saphenous arteries were used for analysis. Functional perfusion measurements of the collateral region were performed using a Lisca PIM II camera (Gambro). Gelatin bismuth-based angiography was perfottned as described (Carmeliet et al., Nat. Med. 7:575-583, 2001) and analyzed by photoangiographs (Nikon D1 digital camera). Collateral side branches were categorized as follows: second-generation collateral arterioles directly branched off from the main collateral, whereas third-generation collateral arterioles were orientated perpendicularly to the second-generation branches. The number of secondary and tertiary collateral arterioles was counted. After perfusion-fixation, the muscle tissue between the two superficial collateral arterioles (adductor) was post-fixed in 2% paraformaldehyde (PFA) and paraffin-embedded, and were morphometrically analyzed. An endurance treadmill-running test was perfatmed at 12, 24, 48, and 72 hours after bilateral femoral artery ligation.
(§3) Bone Marrow (BM) Transplantation and Hematological Analysis: Balb/c WT and PHD2^+/− recipient mice were irradiated with 7.5 Gy. Subsequently, 5×10^6 bone marrow cells from green fluorescent protein^+ (GFP^+) WT or GFP^+ PHD2^+/− mice were injected intravenously via the tail vein. After one week, saline or AMD3100 (5 mg/kg) was administered intravenously and saline or imatinib ([…]) was administered by oral gavage for four weeks. Femoral artery ligation, treadmill running test and bismuth angiography were performed at six weeks after bone marrow reconstitution. Red and white blood cell count was determined using a hemocytometer on peripheral blood collected in heparin with capillary pipettes by retro-orbital bleeding. To assess the effect of acute deletion of macrophage-borne PHD2 on arteriogenesis, PHD2^Rosa26CreERT;lox/wt bone marrows were transplanted into lethally irradiated WT recipient mice. After five weeks, transplanted mice were injected i.p. with tamoxifen (1 mg/mouse; Sigma) or vehicle for five days. TEM quantification and femoral artery ligation were performed ten days after tamoxifen treatment as explained above. The bone marrow of PHD2^WT;Tie2:GFP or PHD2^HE;Tie2:GFP mice was transplanted in lethally irradiated WT mice. After five weeks, mice were injected systemically (5×10^11 vp) and locally (5×10^9 vp in two points of the adductor) with an AAV9 encoding the mouse extracellular domain of Tie2 fused to a flag tag (AAV9:sTie2). AAV9 encoding the human serum albumin was used as control. One week after injection of the viral vector, mice were subjected to femoral artery ligation. Blood and adductor samples were harvested at baseline and 72 hours post-ischemia and used to sort CD115^+GFP^+ circulating monocytes and F4/80^+GFP^+ macrophages.

[3] = tested on: hCASMC (Human coronary artery smooth muscle cells); experiment: SMC migration (Transwell) toward PHD2+/- macrophages; type: cell-based; conditions: AMD3100 1 μg/ml, imatinib 2.5 μg/ml, alone or combined
Protocol: as §2

[4] = tested on: collateral branches, circulating TEMs; experiment: Acute PHD2 deletion by tamoxifen in HERosa26CreERT→WT mice: TEMs, collaterals, ischemic damage; type: in vivo
Protocol: as §3

PHD2 = PHD2 expression (qPCR) in bone marrow-derived monocyte/macrophage cultures upon cytokine stimulation; type: cell-based, mice; conditions: for PHD2 transcripts: WT cultures, any of the concentrations tested (50 and 250 ng/mL)
Protocol: Quantitative PCR Analysis: In order to investigate gene expression in pMØ, quantitative RT-PCR (qRT-PCR) was performed. After preparing pMØ, the cells were cultured in normoxic condition for twelve hours, and the RNA was extracted. To analyze the gene profile of adductor, gastrocnemius, and soleus muscle, tissues were collected at baseline or 24 hours/72 hours post-ischemia and RNA was extracted. Macrophages and ECs were freshly sorted from dissected adductors as described below and RNA was extracted. Quantitative RT-PCR was perfouned with commercially available or homemade primers and probes for the studied genes. The assay ID (Applied Biosystems, Foster City, Calif.) or the sequence of primers and probes (when homemade) are listed in Table 5. RNA levels of Tie-2, SDF1 and PDGFB after inhibition of NF-κB pathway were measured by qRT-PCR on pMØ exposed for twelve hours to 500 nM 6-amino-4-(4-phenoxyphenylethylamino)quinazoline. […] After 24 hours, cells were harvested for RNA extraction and cDNA preparation.

[5] = HE→WT mice, daily AMD3100 5 mg/kg or imatinib 50 mg/kg alone
[6] = tamoxifen 1 mg/mouse for five days

## 5′-GCCGGCUGGGCAAAUACUAUGUCA-3′ (SEQ ID NO:1) [PHD3 siRNA]
NF-κB; PHD2LysCre;lox/lox macrophages
  induction of NF-κB activity vs scramble control: 70%
NF-κB; PHD2LysCre;lox/wt macrophages
  induction of NF-κB activity vs scramble control: 14%
NF-κB; PHD2LysCre;wt/wt macrophages
  induction of NF-κB activity vs scramble control: 22%
PHD3; PHD2LysCre;lox/lox macrophages
  knockdown of PHD3 vs scramble control: 37±0.01%
PHD3; PHD2LysCre;lox/wt macrophages
  knockdown of PHD3 vs scramble control: 60±0.04%
PHD3; PHD2LysCre;wt/wt macrophages
  knockdown of PHD3 vs scramble control: 63±0.03%

## c1cc(CN2CCCNCCNCCCNCC2)ccc1CN1CCCNCCNCCCNCC1 [AMD3100]
[1]
  increased SMC growth by PHD2+/- macrophages: abrogated
[2]; [5]
  increased formation of second generation collateral branches: only partially prevented
  third generation collaterals: affected
[2]; WT→WT mice, alone or in combination
  number of collateral branch arteries: not affected
[3]
  migration of SMCs toward PHD2+/- macrophages: not effective

## CC/C(=C(\c1ccccc1)c1ccc(OCCN(C)C)cc1)c1ccccc1 [tamoxifen]
[4]; 72 hours after femoral artery ligation
  ischemic damage: greatly reduced
[4]; 14 days after tamoxifen 1 mg/mouse for five days, vs vehicle
  circulating TEMs: almost three-fold increased
[4]; [6]
  secondary collateral branches, abundance vs vehicle: 1.6 times
  tertiary collateral branches, abundance vs vehicle: 2.3 times

## MCP1: monocyte chemotactic protein-1, ischemia-induced cytokine
PHD2
  PHD2 transcripts: did not affect

## SDF1: Stromal cell-derived factor 1, alpha chemokine
PHD2
  PHD2 transcripts: did not affect

## VEGF
PHD2
  PHD2 transcripts: did not affect

B1: PlGF: ischemia-induced cytokine (protein, UniProt P49763 19-221, looked up)
Placenta growth factor: LPAVPPQQWALSAGNGSSEVEVVPFQEVWGRSYCRALERLVDVVSEYPSEVEHMFSPSCVSLLRCTGCCGDENLHCVPVETANVTMQLLKIRSGDRPSYVELTFSQHVRCECRHSPGRQSPDMPGDFRADAPSFLPPRRSLPMLFRMEWGCALTGSQSAVWPSSPVPEEIPRMHPGRNGKKQQRKPLREKMKPERCGDAVPRR
PHD2
  PHD2 transcripts: did not affect

B2: angiopoietin-2: Tie2 ligand cytokine (Prospec) (protein, UniProt O15123 19-496, looked up)
Angiopoietin-2: YNNFRKSMDSIGKKQYQVQHGSCSYTFLLPEMDNCRSSSSPYVSNAVQRDAPLEYDDSVQRLQVLENIMENNTQWLMKLENYIQDNMKKEMVEIQQNAVQNQTAVMIEIGTNLLNQTAEQTRKLTDVEAQVLNQTTRLELQLLEHSLSTNKLEKQILDQTSEINKLQDKNSFLEKKVLAMEDKHIIQLQSIKEEKDQLQVLVSKQNSIIEELEKKIVTATVNNSVLQKQQHDLMETVNNLLTMMSTSNSAKDPTVAKEEQISFRDCAEVFKSGHTTNGIYTLTFPNSTEEIKAYCDMEAGGGGWTIIQRREDGSVDFQRTWKEYKVGFGNPSGEYWLGNEFVSQLTNQQRYVLKIHLKDWEGNEAYSLYEHFYLSSEELNYRIHLKGLTGTAGKISSISQPGNDFSTKDGDNDKCICKCSQMLTGGWWFDACGPSNLNGMYYPQRQNTNKFNGIKWYYWKGSGYSLKATTMMIRPADF
PHD2; WT monocytes/macrophages, only at 50 ng/ml
  reduction of PHD2 levels: 15%

B3: PDGFB: platelet-derived growth factor beta protein (protein, UniProt P01127 82-190, looked up)
Platelet-derived growth …: SLGSLTIAEPAMIAECKTRTEVFEISRRLIDRTNANFLVWPPCVEVQRCSGCCNNRNVQCRPTQVQLRPVQVRKIEIVRKKPIFKKATVTLEDHLACKCETVAAARPVT
PHD2
  PHD2 transcripts: did not affect
